Series [1] in a line: Test on Stability (remaining rate by HPLC after storage at 80° C.). Format: physicochemical. To be noted: for Remaining Rate (%), 0 day: 80° C.; for Remaining Rate (%), 0 day / Remaining Rate (%), After 4 days: sealed vial, HPLC; for Remaining Rate (%), After 4 days: after 4 days at 80° C., 5760 min. As for the experimental part: To 30 ml of ethanol, was dissolved 2 g of (R)-(-)-4,5-dihydro-5-methyl-6-[4-[(2-propyl-3-oxo-1-cyclohexenyl) amino]phenyl]-3(2H)-pyridazinone under heating, and the solution was place for cooling under room temperature. After condensing the solvent of the solution under reduced pressure, the solution was then dried under reduced pressure by using a vacuum pump, thereby affording 1.5 g of the noncrystalline powder of said compound of which melting point being of from 102° to 106° C.
Each 10 mg of the noncrystalline powder obtained as described above and the crystalline form obtained in the Example 2 were weighed precisely, placed in a 20 ml volume vial then sealed, respectively, and preserved for 4 days at 80° C. Then, the vials were cooled to room temperature, and subsequently the determination of the remaining rate (%) of the test compounds were conducted by using high performance liquid chromatography (HPLC).
Column: TSK-gel 80 TM 4.6 mm I.D×250 mm (Manufactured by Tosoh Corporation)
Mobile phase: Mixture of acetonitrile and distillated water (Combining rate, 60/40)
Flow Speed: 1.0 ml/min., Temperature: 40° C., Wavelength for Detection: 254 nm

The nature of series [2]: Residue of Solvent (water by Karl Fischer, ethanol by GC). Format: physicochemical. To be noted: for Water Content (%): Karl Fischer moisture meter; for removal of remaining solvent by drying (in words): as demonstrated in Table 4; for Ethanol Content (%): gas chromatography, sample in DMSO. As for the experimental part:
By using the same noncrystalline powder and the crystalline form as the ones used in the Test Example 2, the amount of remaining solvent was analyzed.
Each 50 mg of the noncrystalline powder and the crystalline form were weighed precisely, on which water content was determined by using a Karl Fischer moisture meter, respectively. Whereas, each 50 mg of the noncrystalline powder and the crystalline form were weighed and dissolved in dimethyl sulfoxide (DMSO), respectively, and those solution were adjusted to a volume of 50 ml, respectively. A 2 μl portion out of the 50 ml solution was used for determining the ethanol content in the test sample by using gas chromatography (GC), respectively.
N2 : 25 ml/min, Air: 0.6 kg/cm^2, H2 : 0.6 kg/cm^2
Temperature : 180° C. at Column; 220° C. at Injection site, 220° C. at Detection site.

Series [3] deals with platelet aggregation. The series is described as follows: Inhibitory effect on platelet aggregation, overall statement. Format: cell-based, rabbits. The note with it: same procedure as Test Example 1; crystalline compound of Example 2. As for the experimental part:
In vitro inhibitory activity of the compound of the present invention was evaluated on platelet aggregation each induced by adenosine diphosphate (ADP), collagen, arachidonic acid, U-46619 and thrombin, respectively, by using an aggregation meter (type: hematracer PAT-606, manufactured by Niko bioscience Co., Ltd). 0.38% citric acid-containing blood collected from rabbits was centrifuged at 1,200 rpm for 15 min. to thereby obtain platelet rich plasma (hereinafter referred to as PRP). The PRP obtained was further centrifuged at 3,500 rpm for 10 min., and the supernatant was used as platelet poor plasma (hereinafter referred to as PPP). […] Then, each 22 μl of the said aggregation-inducing agents, ADP, collagen, U-46619 and thrombin, and 2.2 μl of arachidonic acid, were added thereto, respectively, then platelet aggregation was measured for 5 min., except for collagen, for which the measurement was conducted for 10 min. The inhibitory effect on platelet aggregation was expressed as inhibition rate (%) respective to the maximum aggregation rate obtained in the control plot. […]

Series [4] relates to platelet aggregation induced by thrombin. The series is described as follows: Inhibitory effect on platelet aggregation induced by thrombin, in vitro, PRP. Format: cell-based, rabbits. The note with it: Oryctolagus cuniculus, 0.5 U/ml thrombin, rabbit PRP, 3 min pre-incubation, measured 5 min, read-out: Inhibition of Platelet Aggregation (IC50), Thrombin. As for the experimental part: (§1) In vitro inhibitory activity of the compound of the present invention was evaluated on platelet aggregation each induced by adenosine diphosphate (ADP), collagen, arachidonic acid, U-46619 and thrombin, respectively, by using an aggregation meter (type: hematracer PAT-606, manufactured by Niko bioscience Co., Ltd). 0.38% citric acid-containing blood collected from rabbits was centrifuged at 1,200 rpm for 15 min. to thereby obtain platelet rich plasma (hereinafter referred to as PRP). The PRP obtained was further centrifuged at 3,500 rpm for 10 min., and the supernatant was used as platelet poor plasma (hereinafter referred to as PPP). The platelets in the PRP were prepared by dilution with PPP to a concentration of 2 to 5×10^8 cells/ml, and 10 μM of ADP, 20 μg/ml of collagen, 200 μg/ml of arachidonic acid, 10 μM of U-46619 and 0.5 U/ml of thrombin are used for the induction of platelet aggregation, respectively, where all of those concentrations are expressed in the final concentration. The test compound was dissolved in dimethyl sulfoxide (DMSO), and to 0.2 μl of the solution thus obtained, was added 0.2 ml of the sample of PRP prepared as described above, then the solution was placed for pre-incubation for 3 min. Then, each 22 μl of the said aggregation-inducing agents, ADP, collagen, U-46619 and thrombin, and 2.2 μl of arachidonic acid, were added thereto, respectively, then platelet aggregation was measured for 5 min., except for collagen, for which the measurement was conducted for 10 min. The inhibitory effect on platelet aggregation was expressed as inhibition rate (%) respective to the maximum aggregation rate obtained in the control plot. [formula]
(§2) A dose-response curve was prepared, and from which IC50, a dose attainable 50% inhibition of platelet aggregation, was determined.

The subject of series [5] is platelet aggregation induced by adenosine diphosphate (ADP). Briefly: Inhibitory effect on platelet aggregation induced by ADP, in vitro, PRP. Format: cell-based, rabbits. To be noted: Oryctolagus cuniculus, 10 μM ADP, rabbit PRP, 3 min pre-incubation, measured 5 min, read-out: Inhibition of Platelet Aggregation (IC50), ADP. As for the experimental part: as §1, §2
The subject of series [6] is platelet aggregation induced by U-46619. Briefly: Inhibitory effect on platelet aggregation induced by U-46619, in vitro, PRP. Format: cell-based, rabbits. To be noted: Oryctolagus cuniculus, 10 μM U-46619, rabbit PRP, 3 min pre-incubation, measured 5 min, read-out: Inhibition of Platelet Aggregation (IC50), U-46619. The protocol:
as §1, §2

Series [7] concerns platelet aggregation induced by collagen. The series is described as follows: Inhibitory effect on platelet aggregation induced by collagen, in vitro, PRP. Format: cell-based, rabbits. The note with it: Oryctolagus cuniculus, 20 μg/ml collagen, rabbit PRP, 3 min pre-incubation, measured 10 min, read-out: Inhibition of Platelet Aggregation (IC50), Collagen. As for the experimental part:
as §1, §2

Series [8] concerns platelet aggregation induced by arachidonic acid. The series is described as follows: Inhibitory effect on platelet aggregation induced by arachidonic acid, in vitro, PRP. Format: cell-based, rabbits. The note with it: Oryctolagus cuniculus, 200 μg/ml arachidonic acid, rabbit PRP, 3 min pre-incubation, measured 5 min, read-out: Inhibition of Platelet Aggregation (IC50), Arachidonic Acid. As for the experimental part:
as §1, §2

For the molecule `CCCC1=C(Nc2ccc(C3=NNC(=O)C[C@H]3C)cc2)CCCC1=O` [Crystalline form, (R)-(-)-4,5-dihydro-5-methyl-6-[4-[(2-propyl-3-oxo-1-cyclohexenyl)amino]phenyl]-3(2H)-pyridazinone], in series [1], the “Remaining Rate (%), 0 day” value is reported as 100% and the “Remaining Rate (%), After 4 days” value came to 96%. The “stability (in words)” value in series [1] (4 days at 80° C., crystalline form versus noncrystalline powder) is on record as “superior than that of the noncrystalline powder”. For the same molecule, in series [2], the “Water Content (%)” value was 0.2%, the “removal of remaining solvent by drying (in words)” value was “easy to dry” and the “Ethanol Content (%)” value came to 0.2%. For the same molecule, the “inhibitory effect on platelet aggregation (in words)” value in series [3] is on record as “excellent inhibitory effect on platelet aggregation similar to the effect of the noncrystalline compound, (R)-(-)-(I)”.
Broadly, the IC50 is the concentration needed to halve the response being measured. In the case of `CCCC1=C(Nc2ccc(C3=NNC(=O)CC3C)cc2)CCCC1=O` (racemic) [(±)-(I), 4,5-dihydro-5-methyl-6-[4-[(2-propyl-3-oxo-1-cyclohexenyl)amino]phenyl]-3(2H)-pyridazinone], the IC50 worked out at 3 µM in series [4]; 4.5 µM in series [5]; 1.5 µM in series [6]; 3.5 µM in series [7]; 1.7 µM in series [8].
For the molecule `CCCC1=C(Nc2ccc(C3=NNC(=O)C[C@@H]3C)cc2)CCCC1=O` [(S)-(-)-(I)], the IC50 in series [4] is 560 µM; in series [5] it was 780 µM; in series [6], > 100 µM; in series [7] it was 1010 µM; in series [8] it was 290 µM.
`CCCC1=C(Nc2ccc(C3=NNC(=O)C[C@H]3C)cc2)CCCC1=O` [Noncrystalline powder, (R)-(-)-4,5-dihydro-5-methyl-6-[4-[(2-propyl-3-oxo-1-cyclohexenyl)amino]phenyl]-3(2H)-pyridazinone]: in series [1], the “Remaining Rate (%), 0 day” value was 100% and the “Remaining Rate (%), After 4 days” value was found to be 58%. In addition, in series [2], the “Water Content (%)” value is 1.3%, the “removal of remaining solvent by drying (in words)” value was “difficult to completely remove the remaining solvent” and the “Ethanol Content (%)” value is reported as 4.3%.
Turning to `CCCC1=C(Nc2ccc(C3=NNC(=O)C[C@H]3C)cc2)CCCC1=O` (single isomer, unassigned) [(R)-(-)-(I)], the half-maximal inhibitory concentration (IC50) is 1.5 µM in series [4]; 2.9 µM in series [5]; 0.38 µM in series [6]; 2.5 µM in series [7]; 0.82 µM in series [8].

The values above are taken from patent US5856480A, “Optically active compound” (Nippon Soda Co., Ltd., priority 1994, dated 1999).
